Assay results reported in patent US10238685B2, “Compositions containing polymeric sulfur and uses thereof” (Johnson & Johnson Consumer Inc., priority 2015, dated 2019).
Read-outs that look alike come from different tables or passages of the source.

Columns and labels:
Assay type in all cases: cell-based
[1] = test system: IL-1α pro-inflammatory cytokine release; assay: IL-1α cytokine release in human skin equivalents (EPI 200 HCF-PRF)
Protocol: The potential to induce the pro-inflammatory cytokine release IL1-a by either the polymeric sulfur (Sn) and of regular sulfur (S) were evaluated in human skin equivalents. Human skin equivalents (EPI 200 HCF-PRF), multilayer and differentiated epidermis consisting of normal human epidermal keratinocytes, were purchased from MatTek (Ashland, Mass.). Upon receipt, skin equivalents were incubated for 24 hours at 37° C. in maintenance medium without hydrocortisone. Equivalents were topically treated (0.1%, 1% and 10%) with either polymeric sulfur (IS-90, Wuxi Wanli Chemical, China) or regular sulfur (S, Sigma-Aldrich, St Louis, Mo., USA) in 70% ethanol/30% propylene glycol vehicle, and compared to either vehicle alone used as negative control, or to the 10 mM SDS used as positive control. Equivalents were incubated for 48 hours at 37° C. with maintenance medium then supernatants were analyzed for IL-1α pro-inflammatory cytokine release using MILLIPLEX®MAP kit (Millipore Corp., Billerica, Mass.).

IL-8 cytokine release = IL-8 cytokine release in normal human epidermal keratinocytes
Protocol: The irritation/inflammatory/mildness potential of polymeric sulfur (Sn) and of regular sulfur (S) were evaluated in-vitro in human primary cell cultures. Normal human epidermal keratinocytes were purchased from Promocell (Heidelberg, Germany). The cells were plated in 24-well tissue culture treated plates at a density of 30,000 cells/well in Lonza KGM-Gold BulletKit without hydrocortisone (Lonza, Walkersville, Md., USA). After 48 hours, cells were treated with the actives described below: Polymeric form of sulfur (Wuxi Wanli Chemical, China) and the regular form of sulfur (Sigma-Aldrich, St Louis, Mo.) at indicated concentrations for 24 hours, following which supernatants were collected and analyzed for IL-8 and IL-1α cytokine release using MILLIPLEX®MAP kit (Millipore Corp., Billerica, Mass.).

[2] = test system: Propionibacterium acnes ATCC 6919; assay: Antimicrobial Efficacy Test - Microcentrifuge Tube Method, P. acnes; details: for Log / cfu/ml / log reduction: 30 minute exposure
Protocol: (§1) For efficacy studies against Propionibacterium acnes, Staphylococcus aureus, and Escherichia coli 1% test sample suspensions [Sulfur (S) Sigma or Polymeric Sulfur (Sn) IS90 from Wuxi Wanli Chemical, China] were prepared as w/v in Butterfield's Phosphate Buffer. Serial dilutions of 1:10 were performed v/v for lower concentrations. Aliquots were then pipetted into microcentrifuge tube for exposure to test organism. Concentrations of 10% and 5% for testing against Aspergillus brasiliensis were weighed and diluted directly in microcentrifuge tubes. Each test organism was standardized to concentration of 10E6 cfu/ml. Test sample was inoculated as 1:10 (0.1 ml inoculum to 0.9 ml sample) for final concentration of 10E5 cfu/ml sample. Buffer control sample was included and used to calculate log reduction for each test sample. After inoculation, study tubes were placed at 37° C. (±2° C.), shaking at 1000 rpm for set exposure time (30 minutes, 1 hour or 3 hours). At completion of exposure time, each tube was centrifuged for 10 seconds to settle test material out of suspension. Aliquot of fluid was removed, serial diluted and plated for recovery of viable organisms. Each organism was plated on appropriate media and incubated at proper temperature and length of time before counting recoveries.

[3] = test system: Escherichia coli ATCC 8739; assay: Antimicrobial Efficacy Test - Microcentrifuge Tube Method, E. coli; details: for Log / cfu/ml / log reduction: 30 minute exposure
Protocol: as §1

[4] = test system: Aspergillus brasiliensis ATCC 16404; assay: Antimicrobial Efficacy Test - Microcentrifuge Tube Method, A. brasiliensis; details: for Log / cfu/ml / log reduction: 3 hour exposure
Protocol: as §1

[5] = test system: IL-22-induced IL-8 cytokine release; assay: IL-22-induced IL-8 cytokine release in normal human epidermal keratinocytes
Protocol: The anti-inflammatory potential of polymeric sulfur (Sn) and of regular sulfur (S) were evaluated in-vitro in human primary epidermal cell cultures. Normal human epidermal keratinocytes were purchased from Promocell (Heidelberg, Germany). The cells were plated in 24-well tissue culture treated plates at a density of 30,000 cells/well in Lonza KGM-Gold Bullet Kit without hydrocortisone (Lonza, Walkersville, Md.). After 48 hours, cells were treated with the actives described below: Polymeric form of sulfur (IS-90, Wuxi Wanli Chemical, China) and the regular form of sulfur (Sigma-Aldrich, St Louis, Mo., USA) at indicated concentrations, either in the presence or absence of the pro-inflammatory cytokine IL-22 (R&D Systems, Minneapolis, Minn.) 20 ng/ml. Following the treatment period of 24 hrs, the cell culture media supernatants were collected and analyzed for IL-8 cytokine release using MILLIPLEX®MAP kit (Millipore Corp., Billerica, Mass.).

[6] = test system: Staphylococcus aureus ATCC 6538; assay: Antimicrobial Efficacy Test - Microcentrifuge Tube Method, S. aureus; details: for Log / cfu/ml / log reduction: 60 minute exposure
Protocol: as §1

With Polymeric Sulfur [Sn] the “stimulation of pro-inflammatory cytokine IL-1α (FIG. 2)” value [1] was “did not induce the production of IL-1α to the same extent” and the “stimulation of pro-inflammatory cytokine IL-8 vs untreated control cells (FIG. 3)” value (IL-8 cytokine release) was “showed significantly lower stimulation of the pro-inflammatory cytokine IL-8”.

Compound S1SSSSSSS1 [S, Sulfur] has a Log ([2]; 0.001%) of 5.3, a cfu/ml ([2]; 0.001%) of 2.0E+05 cfu/ml and a log reduction ([2]; 0.001%) of 0.1. It also gave a Log ([2]; 0.01%) of 5.3, a cfu/ml ([2]; 0.01%) of 1.9E+05 cfu/ml and a log reduction ([2]; 0.01%) of 0.1. It also gave a Log ([2]; 0.1%) of 5.3, a cfu/ml ([2]; 0.1%) of 1.8E+05 cfu/ml and a log reduction ([2]; 0.1%) of 0.1. It also gave a Log ([2]; 1% w/v) of 5.2, a cfu/ml ([2]; 1% w/v) of 1.6E+05 cfu/ml and a log reduction ([2]; 1% w/v) of 0.2. For the same compound, the “antimicrobial efficacy, conclusion” value ([2]; at 0.01% or 0.001%) was “Neither form was efficacious”, the “stimulation of pro-inflammatory cytokine IL-1α (FIG. 2)” value ([1]; topical 0.1%, 1% and 10% in 70% ethanol/30% propylene glycol, 48 hours) was “did induce the stimulation of the pro-inflammatory cytokine IL-1α in a dose-dependent manner” and the Log ([3]; 0.001%) was 6.1. The cfu/ml ([3]; 0.001%) was 1.3E+06 cfu/ml, the log reduction ([3]; 0.001%) was 0.1 and the Log ([3]; 0.01%) was 6.1. For the same compound, the cfu/ml ([3]; 0.01%) was 1.3E+06 cfu/ml, the log reduction ([3]; 0.01%) was 0.1 and the Log ([3]; 0.1%) was 6.1. For the same compound, the cfu/ml ([3]; 0.1%) was 1.4E+06 cfu/ml, the log reduction ([3]; 0.1%) was 0.1 and the Log ([3]; 1% w/v) was 6.2. For the same compound, the cfu/ml ([3]; 1% w/v) was 1.5E+06 cfu/ml, the log reduction ([3]; 1% w/v) was 0.0 and the “antimicrobial efficacy, conclusion” value ([3]; at 0.1%, 0.01% or 0.001%) was “Neither form was efficacious”. The Log ([4]; 0.1%) was 5.5, the cfu/ml ([4]; 0.1%) was 3.2E+05 cfu/ml and the log reduction ([4]; 0.1%) was −0.1. For the same compound, the Log ([4]; 1%) was 5.3, the cfu/ml ([4]; 1%) was 2.0E+05 cfu/ml and the log reduction ([4]; 1%) was 0.1. It also gave a Log ([4]; 5%) of 5.5, a cfu/ml ([4]; 5%) of 2.9E+05 cfu/ml and a log reduction ([4]; 5%) of −0.1. It also gave a Log ([4]; 10%) of 5.4, a cfu/ml ([4]; 10%) of 2.8E+05 cfu/ml and a log reduction ([4]; 10%) of 0.0. For the same compound, the “antimicrobial efficacy, conclusion” value ([4]; at 1% or 0.01%) was “Neither was efficacious”, the “IL-8 release vs untreated control cells in presence of IL-22 (FIG. 1)” value ([5]; 0.01% up to 3%, IL-22 20 ng/ml, 24 hrs) was “did induce significantly the stimulation of the pro-inflammatory cytokine IL-8” and the “anti-inflammatory potential in human primary epidermal cells in vitro” value ([5]; composition, measured per procedure of the Examples) was “greater than 220 pg/ml”. The “stimulation of pro-inflammatory cytokine IL-8 vs untreated control cells (FIG. 3)” value (IL-8 cytokine release; 0.01% up to 3%, 24 hours, no IL-22) was “did induce significantly the stimulation of the pro-inflammatory biomarker cytokine IL-8”, the Log ([6]; 0.001%) was 4.0 and the cfu/ml ([6]; 0.001%) was 9.1E+03 cfu/ml. The log reduction ([6]; 0.001%) was 1.4, the Log ([6]; 0.01%) was 4.0 and the cfu/ml ([6]; 0.01%) was 1.0E+04 cfu/ml. It also gave a log reduction ([6]; 0.01%) of 1.4, a Log ([6]; 0.1%) of 3.5 and a cfu/ml ([6]; 0.1%) of 3.0E+03 cfu/ml. The log reduction ([6]; 0.1%) was 1.9, the Log ([6]; 1% w/v) was 5.3 and the cfu/ml ([6]; 1% w/v) was 2.1E+05 cfu/ml. The log reduction ([6]; 1% w/v) was 0.1 and the “antimicrobial efficacy, conclusion” value ([6]; at 0.1%) was “the forms were equivalent”.
